According to ChEMBL document CHEMBL3046668, “Phytoene desaturase inhibition by O-(2-phenoxy)ethyl-N-aralkylcarbamates” (J Agric Food Chem, 2003):

molecular target: 15-cis-phytoene desaturase (Synechococcus elongatus (strain PCC 7942) (Anacystis nidulans R2), UniProt P26294); assay: Inhibition of Synechococcus PCC 7942 phytoene desaturase expressed in Escherichia coli JM101 using phytoene as substrate after 8 hr by Dixon plot analysis; details: read-out: I50
Sequence (P26294 whole entry): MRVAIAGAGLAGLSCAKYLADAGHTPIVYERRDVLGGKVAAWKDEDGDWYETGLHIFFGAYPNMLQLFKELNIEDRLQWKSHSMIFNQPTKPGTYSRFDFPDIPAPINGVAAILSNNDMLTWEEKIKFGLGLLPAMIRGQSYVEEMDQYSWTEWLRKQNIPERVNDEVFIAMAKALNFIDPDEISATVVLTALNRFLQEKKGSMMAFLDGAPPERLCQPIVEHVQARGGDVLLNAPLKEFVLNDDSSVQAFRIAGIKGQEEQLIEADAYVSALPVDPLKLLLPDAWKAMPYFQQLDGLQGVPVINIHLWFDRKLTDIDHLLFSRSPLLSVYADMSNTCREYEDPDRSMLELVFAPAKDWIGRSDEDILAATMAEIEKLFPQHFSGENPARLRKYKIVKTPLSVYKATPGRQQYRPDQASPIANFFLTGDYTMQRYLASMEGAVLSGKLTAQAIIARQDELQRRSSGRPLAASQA

Compound | IC50 [nM]
CCC(COc1cccc(C(F)(F)F)c1)OC(=O)NCc1ccccc1 (stereo not drawn) | 13
CNc1cnn(-c2cccc(C(F)(F)F)c2)c(=O)c1Cl [NORFLURAZONE] | 29
CCC(CSc1cccc(Cl)c1)OC(=O)NCc1ccccc1 (stereo not drawn) | 5400
